Data reported in ChEMBL document CHEMBL6071179, “New LsrK Ligands as AI-2 Quorum Sensing Interfering Compounds against Biofilm Formation” (J Med Chem, 2024).
Active and inactive are the calls of the source. The calls are words filed in the database; no cut-off is given here.

Tests used:
[1] = system: Pseudomonas aeruginosa; experiment: Antibiofilm activity against Pseudomonas aeruginosa PAO1 at 500 ug/ml incubated for […] by crystal violet staining based microplate reader assay; format: functional; conditions: dose 500 µg/ml
[2] = system: Staphylococcus aureus; experiment: Antibiofilm activity against Staphylococcus aureus BHICC at 500 ug/ml incubated for 24 hrs by crystal violet staining based microplate reader assay; format: functional; conditions: dose 500 µg/ml
[3] = system: Vibrio harveyi; experiment: Inhibition of Vibrio harveyi BB886 bacterial growth at 4 to 500 ug/ml incubated for 24 hrs by resazurin dye based microplate reader assay; format: functional, organism-based; conditions: dose 4-500 µg/ml
[4] = system: Pseudomonas aeruginosa; experiment: Inhibition of Pseudomonas aeruginosa bacterial growth at 500 ug/ml incubated for 20 hrs by microplate reader assay; format: functional, organism-based; conditions: dose 500.0 µg/ml
[5] = Inhibition of Vibrio harveyi BB170 AI-2 mediated Quorum sensing system assessed as reduction in bioluminescence incubated for 8 hrs
[6] = target: T1, Autoinducer-2 kinase (Bacteria) (UniProt P77432); experiment: Binding affinity to LSRK (unknown origin) assessed as change in melting temperature at 500 ug/ml in presence of ATP by SYPRO orange staining based differential scanning fluorimetry assay; conditions: dose 500.0 µg/ml
T1 sequence (whole entry): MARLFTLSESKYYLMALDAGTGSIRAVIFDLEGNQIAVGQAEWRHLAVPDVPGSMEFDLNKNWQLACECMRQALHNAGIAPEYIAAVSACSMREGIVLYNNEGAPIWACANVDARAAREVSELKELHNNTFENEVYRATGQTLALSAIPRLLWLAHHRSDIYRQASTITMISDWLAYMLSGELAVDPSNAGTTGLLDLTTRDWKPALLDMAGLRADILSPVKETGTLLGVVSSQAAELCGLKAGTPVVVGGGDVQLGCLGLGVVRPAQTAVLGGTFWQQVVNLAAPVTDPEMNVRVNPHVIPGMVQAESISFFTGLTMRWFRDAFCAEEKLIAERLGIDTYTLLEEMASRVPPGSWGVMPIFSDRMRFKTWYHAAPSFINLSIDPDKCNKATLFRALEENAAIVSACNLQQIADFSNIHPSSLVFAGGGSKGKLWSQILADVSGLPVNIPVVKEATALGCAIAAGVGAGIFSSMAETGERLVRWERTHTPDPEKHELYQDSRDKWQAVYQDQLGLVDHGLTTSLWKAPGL

[7] = Inhibition of Vibrio harveyi BB120 AI-2 mediated Quorum sensing system assessed as reduction in bioluminescence incubated for 8 hrs
[8] = system: Vibrio harveyi; experiment: Inhibition of Vibrio harveyi BB120 bacterial growth at 4 to 500 ug/ml incubated for 24 hrs by resazurin dye based microplate reader assay; format: functional, organism-based; conditions: dose 4-500 µg/ml
[9] = Inhibition of Vibrio harveyi BB886 AI-1 mediated Quorum sensing system assessed as reduction in bioluminescence incubated for 8 hrs
[10] = system: Staphylococcus aureus; experiment: Inhibition of Staphylococcus aureus bacterial growth at 500 ug/ml incubated for 20 hrs by microplate reader assay; format: functional, organism-based; conditions: dose 500.0 µg/ml
[11] = target: T1, Autoinducer-2 kinase (Bacteria); experiment: Binding affinity to LsrK (unknown origin) by STD NMR assay
[12] = target: T1, Autoinducer-2 kinase (Bacteria); experiment: Binding affinity to LsrK (unknown origin) assessed as decrease in ellipticity at 2 to 20 uM by Far-UV CD spectra; conditions: dose 2-20 µM
[13] = target: T1, Autoinducer-2 kinase (Bacteria); experiment: Binding affinity to LsrK (unknown origin) assessed as reduction in fluorescence intensity by intrinsic tryptophan fluorescence spectroscopy
[14] = target: T1, Autoinducer-2 kinase (Bacteria); experiment: Binding affinity to LSRK (unknown origin) assessed as change in melting temperature at 500 ug/ml by SYPRO orange staining based differential scanning fluorimetry assay; conditions: dose 500.0 µg/ml
[15] = target: T1, Autoinducer-2 kinase (Bacteria); experiment: Binding affinity to LsrK (unknown origin) assessed as reduction in fluorescence intensity at 1 uM by intrinsic tryptophan fluorescence spectroscopy

`COC(=O)[C@H](C)NC(=O)[C@H](Cc1ccccc1)NC(=O)C1OCC2(CCCCC2)CO1` showed an MBIC50 [1] of 483 µg/mL and an MBIC50 [2] of 55.9 µg/mL.
Compound `COC(=O)[C@H](Cc1ccccc1)NC(=O)C1COC2(CCCCC2)O1` (stereo partly drawn) has an MBIC50 [1] of 60.5 µg/mL and an MBIC50 [2] of 71.1 µg/mL.
With `O=C(N[C@@H](Cc1ccccc1)C(=O)O)C1COC2(CCCCC2)OC1` the MBIC50 [1] was 50 µg/mL and the MBIC50 [2] was 20.6 µg/mL.
For `CC1(C)OCC(C(=O)N[C@@H](Cc2ccccc2)C(=O)O)O1` (stereo partly drawn), the inhibition [3] was “inactive”, the inhibition [4] was “inactive” and the MBIC50 [1] was 27.7 µg/mL. The inhibition [5] was “Active”, the ΔTm [6] was greater than 2 °C and the inhibition [7] was “Active”. For the same compound, the MBIC50 [2] was 34.6 µg/mL, the inhibition [8] was “inactive” and the inhibition [9] was “inactive”. The inhibition [10] was “inactive”.
`O=C(NCc1ccccc1)C(O)CO` (stereo not drawn) showed an MBIC50 [2] of 128.2 µg/mL.
For `O=C(NCCc1ccccc1)C1COC2(CCCCC2)OC1`, the Activity [11] was “Active”, the inhibition [3] was “inactive” and the inhibition [4] was “inactive”. The Activity [12] was “Dose-Dependent Effect”, the MBIC50 [1] was 6.2 µg/mL and the inhibition [5] was “Active”. The ΔTm [6] was greater than 2 °C, the inhibition [7] was “Active” and the MBIC50 [2] was 16.2 µg/mL. For the same compound, the Activity [13] was “Dose-Dependent Effect”, the ΔTm [14] was greater than 1 °C and the inhibition [8] was “inactive”. The inhibition [9] was “inactive” and the inhibition [10] was “inactive”.
With `CC1(C)OC[C@@H](C(=O)N[C@@H](Cc2ccccc2)C(=O)O)O1` the Activity [12] was “Dose-Dependent Effect”, the MBIC50 [1] was 34.4 µg/mL and the Flu intensity [15] was 12%. The MBIC50 [2] was 26.3 µg/mL, the Activity [13] was “Dose-Dependent Effect” and the ΔTm [14] was greater than 1 °C.
In the case of `Cn1nc(C2COC3(CCCCC3)O2)cc1-c1ccccc1` (stereo not drawn), the inhibition [4] is reported as “inactive”, the MBIC50 [1] is reported as 373 µg/mL and the MBIC50 [2] is reported as 121.4 µg/mL. The inhibition [10] was “inactive”.
For `CCCCCCCN(CCN(CC(=O)O)CC(=O)O)CC(=O)O`, the IC50 [5] was 400 nM.
In the case of `CC1(C)OC[C@H](C(=O)N[C@@H](Cc2ccccc2)C(=O)O)O1`, the Activity [12] is reported as “Dose-Dependent Effect”, the MBIC50 [1] is reported as 30.4 µg/mL and the Flu intensity [15] is reported as 6%. The MBIC50 [2] was 25.4 µg/mL, the Activity [13] was “Dose-Dependent Effect” and the ΔTm [14] was greater than 1 °C.
Compound `COC(=O)[C@H](Cc1ccccc1)NC(=O)C1COC2(CCCCC2)OC1` has an MBIC50 [2] of 85.8 µg/mL.
Compound `CC1(C)OCC(C(=O)NCc2ccccc2)O1` (stereo not drawn) has an MBIC50 [1] of 36.6 µg/mL.
With `O=C(N[C@@H](Cc1ccccc1)C(=O)O)C1COC2(CCCCC2)O1` (stereo partly drawn) the inhibition [4] was “inactive”, the MBIC50 [1] was 46.2 µg/mL and the MBIC50 [2] was 61.5 µg/mL. For the same compound, the inhibition [10] was “inactive”.
For `COC(=O)[C@H](C)NC(=O)[C@H](Cc1ccccc1)NC(=O)[C@@H]1COC(C)(C)O1`, the MBIC50 [1] was 25.4 µg/mL, the MBIC50 [2] was 82.2 µg/mL and the Activity [13] was “Dose-Dependent Effect”. For the same compound, the ΔTm [14] was greater than 1 °C.
`COC(=O)[C@H](Cc1ccccc1)NC(=O)C(O)CO` (stereo partly drawn) showed an MBIC50 [2] of 173 µg/mL.
With `COC(=O)[C@H](C)NC(=O)[C@H](Cc1ccccc1)NC(=O)[C@H]1COC(C)(C)O1` the MBIC50 [1] was 31.7 µg/mL, the MBIC50 [2] was 169.7 µg/mL and the Activity [13] was “Dose-Dependent Effect”.
`O=C(NCc1ccccc1)C1COC2(CCCCC2)O1` (stereo not drawn) gave an MBIC50 [2] of 1913 µg/mL.
With `O=C(NCc1ccccc1)C1COC2(CCCCC2)OC1` the MBIC50 [1] was 40.8 µg/mL.
With `COC(=O)[C@H](C)NC(=O)[C@H](Cc1ccccc1)NC(=O)C1COC(C)(C)O1` (stereo partly drawn) the inhibition [3] was “inactive”, the inhibition [4] was “inactive” and the MBIC50 [1] was 29.1 µg/mL. For the same compound, the inhibition [5] was “Active”, the ΔTm [6] was greater than 2 °C and the inhibition [7] was “Active”. The MBIC50 [2] was 152.3 µg/mL, the inhibition [8] was “inactive” and the inhibition [9] was “inactive”. For the same compound, the inhibition [10] was “inactive”.
For `c1ccc(-c2cc(C3COC4(CCCCC4)O3)[nH]n2)cc1` (stereo not drawn), the inhibition [4] was “inactive”, the MBIC50 [1] was 22.5 µg/mL and the MBIC50 [2] was 45.1 µg/mL. For the same compound, the inhibition [10] was “inactive”.
`O=C(NCCc1ccccc1)C1COC2(CCCCC2)O1` (stereo not drawn) gave an MBIC50 [1] of 38.3 µg/mL and an MBIC50 [2] of 92.3 µg/mL.
With `CCOC(=O)N1CCC(=C2c3ccc(Cl)cc3CCc3cccnc32)CC1` [LORATADINE] the MBIC50 [2] was 23 µg/mL.
`CC(=O)N[C@@H](CS)C(=O)O` [ACETYLCYSTEINE] gave an MBIC50 [1] of 14 µg/mL.
Work on `Cn1nc(-c2ccccc2)cc1C1COC2(CCCCC2)O1` (stereo not drawn) yielded an MBIC50 [2] of 55.2 µg/mL.
